Several values for one entry are separate records, joined by “and”; a condition that tells them apart may be missing. Identical values can stand only once.
How the values were obtained:
[1] = system: metastatic pancreatic ductal adenocarcinoma; assay: Antitumor response per RECIST version 1.1, mITT population; type: in vivo, human; conditions: 500 mg group; 2 of 17 with progression events, rest censored; not an appropriate estimate
CCR2 = conditions: human monocytes and human whole blood; background statement, no reference given; cited from earlier work
[2] = parameters: method as in PMID 27055731; conditions: cited from earlier work
[3] = Multiple-dose plasma pharmacokinetics, cycle 1 day 15; type: in vivo, human
Description: The hypothetical mechanisms of action of PF-04136309 were explored by analysis of biopsies, bone marrow aspirates, and peripheral blood (pre- and post-treatment during the study). Serial blood samples were collected from patients to determine the multiple-dose PK of PF-04136309 given in combination with nab-paclitaxel/gemcitabine.
Blood samples sufficient to provide ≥1 mL of plasma were collected for measurement of PF-04136309 concentrations. Plasma PF-04136309 concentrations were quantified with a validated liquid chromatography–mass spectrometry method. PF-04136309 concentration–time data from cycle 1 day 15 were analyzed using noncompartmental methods to estimate PK parameters.

CCL2-induced pERK = assay: Ex vivo CCL2-induced pERK in whole blood by flow cytometry (target engagement); parameters: species or system human; conditions: most patients, 500 mg (n = 17) and 750 mg (n = 4) BID, over the course of study
Source text: The primary objectives were to evaluate the safety and tolerability of PF-04136309 in combination with nab-paclitaxel/gemcitabine, to characterize the dose-limiting toxicities (DLTs), and determine the RP2D of PF-04136309. Secondary objectives included assessment of PF-04136309 PK analysis and ex vivo inhibition of CCL2-induced extracellular signal-regulated kinase phosphorylation (pERK) as a measure of target engagement. Exploratory objectives included evaluation of CCL2 levels in peripheral blood and the prevalence of IM, TAM, and other relevant immune cells in the peripheral blood, bone marrow, and core needle biopsy of metastases or fine-needle aspirate primary tumor tissue.
(§1) The levels of CD14 + CCR2+ IM or other immune-cell phenotypes in the samples from the core needle biopsy, fine-needle aspirate from primary tumor tissue, bone marrow, and peripheral blood were assessed by flow cytometry. CCL2 levels were determined using whole blood plasma by immunoassay using a luminex-based method. The ex vivo inhibition of CCL2-induced pERK by PF-04136309 was measured in whole blood using flow cytometry. Percentages of CD4+, CD8+, and CD4 + FoxP3+ T cells within CD45+ populations were evaluated by flow cytometry in paired fresh biopsy samples from three patients. Two patients provided both baseline and on-study biopsies, and one patient provided a baseline biopsy only.

[4] = system: metastatic pancreatic ductal adenocarcinoma; assay: Antitumor response per RECIST version 1.1, mITT population; type: in vivo, human; conditions: for Best overall response: Complete response / Best overall response: Early death / Best overall response: Indeterminate / Best overall response: Objective progression / Best overall response: Partial response / Best overall response: Stable/no response / Best overall response: Unconfirmed complete response / Best overall response: Unconfirmed partial response / Objective response rate (95% exact CI): mITT; for ORR: 95% exact CI
Description: The modified intent-to-treat (mITT) population was defined as all patients who had received at least one dose of study medication and had measurable disease at baseline assessment (within 28 days prior to study entry). The mITT population was assessed for antitumor response.
Objective response rate (ORR) was defined as the proportion of patients with confirmed complete response (CR) or confirmed PR according to Response Evaluation Criteria In Solid Tumors, version 1.1, relative to all enrolled patients who had baseline measurable disease. Confirmed responses were those that persisted on repeat imaging ≥4 weeks after initial documentation of response. Indeterminate responses were those with no documented progression and absence of proper assessment of target lesions.
Patients without on-study radiographic tumor re-evaluation and those who died, progressed, or dropped out for any reason prior to reaching a CR or PR were counted as nonresponders in the assessment of ORR. The ORR, CR, and PR point estimates for each treatment arm were provided along with the corresponding two-sided 95% confidence intervals (CIs) using an exact method.
Imaging for tumor assessments included computed tomography (CT) or MRI scans of the chest, abdomen, and pelvis; brain CT or MRI scan for patients with known or suspected brain metastases; and bone scan and/or bone X-rays for patients with known or suspected bone metastases.

[5] = system: T cells and CCR2+ TAM in tumor biopsy; assay: Immune cells in tumor biopsy samples by flow cytometry; type: in vivo, human
Description: as §1

CCL2 = assay: Plasma CCL2 levels by luminex-based immunoassay; type: in vivo, human; conditions: most patients, 500 mg (n = 17) and 750 mg (n = 4) BID, over the course of study
Description: as §1

[6] = 500-mg BID (n = 13), steady state
[7] = 500-mg BID group (n = 13), steady state
[8] = 750-mg BID group (n = 2), individual values

For O=C(NCC(=O)N1CC[C@H](N[C@H]2CC[C@@](O)(c3ccc(-c4ncccn4)cn3)CC2)C1)c1cccc(C(F)(F)F)c1 [PF-04136309], the “Median progression-free survival (mPFS)” value [1] is given as 5.3 months, the “Effect on CCR2-mediated signal transduction, chemotaxis, and CCL2 binding” value (CCR2) is given as “block” and the “Proportion of patients achieving partial response vs that anticipated with FOLFIRINOX alone” value ([2]; phase Ib, in combination with FOLFIRINOX) is given as “significantly increased”. For the same compound, the Pulmonary events reported ([2]; single agent, non-oncology studies (N = 178) and 39 advanced PDAC patients with FOLFIRINOX) was “no pulmonary events”, the Safety and tolerability ([2]; single oral dose up to 1000 mg, repeated oral up to 500 mg BID as single agent or with FOLFIRINOX) was “generally safe and well tolerated” and the Tolerability ([2]; with FOLFIRINOX, borderline resectable and locally advanced pancreatic cancer) was “well-tolerated”. The “Coefficient of variation of AUCtau” value [3, 6] was 30%, the “Coefficient of variation of Cmax” value [3, 6] was 44% and the “Coefficient of variation of Cmin” value [3, 6] was 57%. For the same compound, the “Mean AUCtau” value [3, 7] was 5873 ng·h/mL, the “Mean Cmax” value [3, 7] was 1276 ng/mL and the “Median Tmax” value ([3]; 500-mg BID, oral, with nab-paclitaxel/gemcitabine) was 1.42 h. The “AUCtau, observed values” [3, 8] was 10,600 ng·hr/mL and 15,700 ng·hr/mL, the “Cmax, observed values” [3, 8] was 2950 ng/mL and 3390 ng/mL and the “Change in CCL2-induced pERK” value (CCL2-induced pERK) was “drop”. The “Best overall response: Complete response” value ([4]; 500 mg BID + nab-P/Gem, N = 17) was 0 n (%), the “Best overall response: Early death” value ([4]; 500 mg BID + nab-P/Gem, N = 17) was 1 (5.9) n (%) and the “Best overall response: Indeterminate” value ([4]; 500 mg BID + nab-P/Gem, N = 17) was 5 (29.4) n (%). For the same compound, the “Best overall response: Objective progression” value ([4]; 500 mg BID + nab-P/Gem, N = 17) was 3 (17.6) n (%), the “Best overall response: Partial response” value ([4]; 500 mg BID + nab-P/Gem, N = 17) was 5 (29.4) n (%) and the “Best overall response: Stable/no response” value ([4]; 500 mg BID + nab-P/Gem, N = 17) was 2 (11.8) n (%). For the same compound, the “Best overall response: Unconfirmed complete response” value ([4]; 500 mg BID + nab-P/Gem, N = 17) was 0 n (%), the “Best overall response: Unconfirmed partial response” value ([4]; 500 mg BID + nab-P/Gem, N = 17) was 1 (5.9) n (%) and the “Objective response rate (95% exact CI)” value ([4]; 500 mg BID + nab-P/Gem, N = 17) was 5 (29.4) (10.3–56.0) n (%). For the same compound, the ORR ([4]; 500 mg BID group (n = 17), 10.3–56.0%) was 29.4%, the “Best overall response: Complete response” value ([4]; 750 mg BID + nab-P/Gem, N = 4) was 0 n (%) and the “Best overall response: Early death” value ([4]; 750 mg BID + nab-P/Gem, N = 4) was 0 n (%). The “Best overall response: Indeterminate” value ([4]; 750 mg BID + nab-P/Gem, N = 4) was 2 (50.0) n (%), the “Best overall response: Objective progression” value ([4]; 750 mg BID + nab-P/Gem, N = 4) was 0 n (%) and the “Best overall response: Partial response” value ([4]; 750 mg BID + nab-P/Gem, N = 4) was 0 n (%). For the same compound, the “Best overall response: Stable/no response” value ([4]; 750 mg BID + nab-P/Gem, N = 4) was 1 (25.0) n (%), the “Best overall response: Unconfirmed complete response” value ([4]; 750 mg BID + nab-P/Gem, N = 4) was 0 n (%) and the “Best overall response: Unconfirmed partial response” value ([4]; 750 mg BID + nab-P/Gem, N = 4) was 1 (25.0) n (%). The “Objective response rate (95% exact CI)” value ([4]; 750 mg BID + nab-P/Gem, N = 4) was 0 (0.0–60.2) n (%), the ORR ([4]; all 21 patients, 8.2–47.2%) was 23.8% and the “Change in PD-1 + CD4+ and PD-1 + CD8+ cells in the tumor biopsy sample” value ([5]; one patient, data not shown) was “increase”. For the same compound, the “CCR2+ TAM levels, change” value ([5]; two patients, 500-mg BID group, individual values, data not shown) was ~4% to 3%, the “Change in CD4+ and CD8+ cells within CD45+ populations in fresh biopsy tumor samples” value ([5]; two patients, 500-mg BID group, baseline vs week 6) was “increase” and the “Change in plasma CCL2 levels” value (CCL2) was “increase”.
